Columns and labels:
[1] = system: CD34+ bone marrow progenitor cells; conditions: for increase in F-cells over untreated cultures, combination with HU: in combination with 5 μM HU, Phase II only (FIG. 3B)
γ-globin = γ-globin mRNA expression by quantitative PCR in K562 cells; type: cell-based, human; conditions: 3 days, HPI-6 plus 100 μM HU (FIG. 1A)
Description: For studies utilizing the human erythroleukemia K562 cell line (ATCC), cells were grown and cultured in complete medium (RPM1 1640, 10% fetal calf serum (FCS), 100 U/ml penicillin and 0.1 mg/ml streptomycin) in a humidified incubator at 37° C., 95% air, 5% CO2. HPIs were titrated into duplicate cultures at dosage levels spanning more than 100-fold differences in concentration, and incubated from 24 to 96 hours prior to harvesting and quantitation of F-cells and HbF levels by flow cytometry.
Each PCR run included a standard curve and water blank. In addition, a melt curve was run after completion of each PCR run to assess the specificity of the amplification, γ-globin gene expression was normalized relative to the expression level of 18S ribosomal RNA for each sample.

SMILES | HbF expression together with HU ([1]; 20 μM HPI-1 with HU (FIGS. 5A, 5B)) | HbF expression compared to vehicle control (percent F-cells or MFI for HbF) ([1]; 20 μM, triplicate (FIGS. 5A, 5B)) | increase in F-cells over untreated cultures, combination with HU [1] [%] | γ-globin expression with added hydroxyurea (γ-globin)
O=C(O)CNC(=O)c1nc(Cl)c2ccccc2c1O [HPI-1, N-((1-chloro-4-hydroxy-isoquinoline-3-carbonyl)-amino)-acetic acid] | additive to the effects of HU | increased HbF expression | 58 | 
O=C(O)CNC(=O)c1ncc2cc(Br)ccc2c1O [HPI-2, [(7-Bromo-4-hydroxy-isoquinoline-3-carbonyl)-amino]-acetic acid] |  |  | 29 | 
O=C(O)CNC(=O)c1ncc2cc(Sc3ccccc3)ccc2c1O [HPI-6, [(4-Hydroxy-7-phenylsulfanyl-isoquinoline-3-carbonyl)-amino]-acetic acid] |  |  |  | augmented
